Values of other authors, collected in patent US11872266B2, “Rapid-acting insulin compositions” (Eli Lilly and Company, priority 2014, dated 2024).

Conditions: on a molar basis

**Q.** Which “Potency relative to human insulin” value does the source give for “28^B-L-Lysine-29^B-L-proline human insulin [Insulin lispro]” here?
**A.** Its value is “equipotent to human insulin”.
